pIC50: −log10 of the molar value.
Tests used:
Type in all cases: cell-based
[1] = molecular target: T1, ERα (Homo sapiens, UniProt P03372); assay: Protein degradation assay: ERα in MCF-7 cells via western blot; details: 6 h; for ERα Protein Degradation 1 nM: 1 nM compound; for ERα Protein Degradation 10 nM: 10 nM compound; for ERα Protein Degradation 100 nM: 100 nM compound
T1 construct: degrading an ERα in MCF-7 cells via a western blot; endogenous in cells; host or cells: MCF-7
T1 sequence (P03372 1-595): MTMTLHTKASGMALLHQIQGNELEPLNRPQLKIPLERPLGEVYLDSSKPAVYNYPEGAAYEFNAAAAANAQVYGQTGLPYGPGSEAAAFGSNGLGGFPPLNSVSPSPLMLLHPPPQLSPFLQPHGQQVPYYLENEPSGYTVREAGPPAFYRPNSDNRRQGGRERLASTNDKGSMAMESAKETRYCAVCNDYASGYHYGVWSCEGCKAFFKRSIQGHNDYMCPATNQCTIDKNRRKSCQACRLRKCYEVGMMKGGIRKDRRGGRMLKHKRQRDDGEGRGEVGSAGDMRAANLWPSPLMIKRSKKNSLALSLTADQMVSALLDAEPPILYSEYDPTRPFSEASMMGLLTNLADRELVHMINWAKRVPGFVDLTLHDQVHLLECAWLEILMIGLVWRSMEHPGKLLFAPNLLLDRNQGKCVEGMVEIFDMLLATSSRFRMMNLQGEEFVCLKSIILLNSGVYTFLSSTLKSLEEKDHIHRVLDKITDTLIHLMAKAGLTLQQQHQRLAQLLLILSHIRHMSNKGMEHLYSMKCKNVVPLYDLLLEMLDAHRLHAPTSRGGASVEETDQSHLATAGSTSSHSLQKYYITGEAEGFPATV
Summary of the method: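 MCF-7 cells in MEM/10% FBS with insulin, seeded 300,000/well, treated 6 h at set concentrations (e.g., 1 nM–1 μM). Whole-cell lysates immunoblotted for ERα with GAPDH loading control, chemiluminescent detection; percentage degradation reported in binned categories (≥50%, 25–50%, 10–25%, <10%).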

[2] = test system: MCF7 cells; assay: Cell viability assay ([…]-GLO, 6-day treatment); details: Homo sapiens, MCF7, 144 h; MCF-7 cells, 6 days, CTG; read-out: Inhibition of Cancerous Cells IC50 MCF-7
Summary of the method: (§1)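 MCF7 (MEM) and T47D (RPMI with insulin), both with 10% FBS, at 1,000 cells/well, treated with a 10-point compound dose series for 6 days, with medium and compound refreshed once. Viability read by CellTiter-Glo luminescence.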

[3] = test system: T47D cells; assay: Cell viability assay ([…]-GLO, 6-day treatment); details: Homo sapiens, 144 h, 6 days, CTG, read-out: Inhibition of Cancerous Cells IC50 T47D
Summary of the method: as §1

Structure (SMILES) | pIC50 [2] | pIC50 [3] | ERα Protein Degradation 1 nM [1] | ERα Protein Degradation 10 nM [1] | ERα Protein Degradation 100 nM [1]
O=C1CCC(N2Cc3cc(C4CCN(CCCCCCOc5ccc([C@@H]6c7ccc(O)cc7CC[C@@H]6c6ccccc6)cc5)CC4)c(F)cc3C2=O)C(=O)N1 (stereo partly drawn) [Compound A5, 3-(6-Fluoro-5-(1-(6-(4-((1R,2S)-6-hydroxy-2-phenyl-1,2,3,4-tetrahydro-naphthalen-1-yl)phenoxy)hexyl)piperidin-4-yl)-1-oxoisoindolin-2-yl)piperidine-2,6-dione] | 9.43 | 9.66 | A (a percentage degradation value of no less than 50%) | A (a percentage degradation value of no less than 50%) | A (a percentage degradation value of no less than 50%)
O=C1CCC(N2Cc3c(csc3C3CCN(CC4CCN(c5ccc([C@@H]6c7ccc(O)cc7CC[C@@H]6c6ccccc6)cc5)CC4)CC3)C2=O)C(=O)N1 (stereo partly drawn) [Compound A7, 3-(1-(1-((1-(4-((1R,2S)-6-hydroxy-2-phenyl-1,2,3,4-tetrahydronaphthalen-1-yl)phenyl)piperidin-4-yl)methyl)piperidin-4-yl)-4-oxo-4H-thieno[3,4-c]pyrrol-5(6H)-yl)-piperidine-2,6-dione] | 6.84 | 9.74 | D (a percentage degradation value of less than 10%) | D (a percentage degradation value of less than 10%) | D (a percentage degradation value of less than 10%)
O=C1CCC(N2Cc3cc(C4CCN(CCCCOc5ccc([C@@H]6c7ccc(O)cc7CC[C@@H]6c6ccccc6)cc5)CC4)c(F)cc3C2=O)C(=O)N1 (stereo partly drawn) [Compound A4, 3-(6-Fluoro-5-(1-(4-(4-((1R,2S)-6-hydroxy-2-phenyl-1,2,3,4-tetrahydro-naphthalen-1-yl)phenoxy)butyl)piperidin-4-yl)-1-oxoisoindolin-2-yl)piperidine-2,6-dione] | 10.22 | 10.10 | D (a percentage degradation value of less than 10%) | D (a percentage degradation value of less than 10%) | D (a percentage degradation value of less than 10%)
O=C1CCC(N2Cc3c(cc(F)cc3C3CCN(CCCCOc4ccc([C@@H]5c6ccc(O)cc6CC[C@@H]5c5ccccc5)cc4)CC3)C2=O)C(=O)N1 (stereo partly drawn) [Compound A1, 3-(6-fluoro-4-(1-(4-(4-((1R,2S)-6-hydroxy-2-phenyl-1,2,3,4-tetrahydro-naphthalen-1-yl)phenoxy)butyl)piperidin-4-yl)-1-oxoisoindolin-2-yl)piperidine-2,6-dione] | > 11.00 | 9.62 | C (a percentage degradation value of less than 25% and no less than 10%) | C (a percentage degradation value of less than 25% and no less than 10%) | B (a percentage degradation value of less than 50% and no less than 25%)
O=C1CC[C@@H](N2Cc3cc(N4CCN(CC5CCN(c6ccc(C7c8ccc(O)cc8CC[C@@H]7c7ccccc7)cc6)CC5)CC4)ccc3C2=O)C(=O)N1 (stereo in doubt) [Compound A15, (R)-3-(5-(4-((1-(4-((1R,2S)-6-Hydroxy-2-phenyl-1,2,3,4-tetrahydronaphthalen-1-yl)phenyl)piperidin-4-yl)methyl)piperazin-1-yl)-1-oxoisoindolin-2-yl)piperidine-2,6-dione] | 8.92 | 9.02 | D (a percentage degradation value of less than 10%) | C (a percentage degradation value of less than 25% and no less than 10%) | D (a percentage degradation value of less than 10%)

Second part, led by results:

pIC50 [2] | pIC50 [3] | Structure (SMILES) | ERα Protein Degradation 1 nM [1] | ERα Protein Degradation 10 nM [1] | ERα Protein Degradation 100 nM [1]
8.60 | 9.02 | O=C1CCC(Nc2cccc(NC(=O)CN3CCN(CC4CCN(c5ccc([C@@H]6c7ccc(O)cc7CC[C@@H]6c6ccccc6)cc5)CC4)CC3)c2)C(=O)N1 (stereo partly drawn) [Compound B19, N-(3-((2,6-dioxopiperidin-3-yl)amino)phenyl)-2-(4-((1-(4-((1R,2S)-6-hydroxy-2-phenyl-1,2,3,4-tetrahydronaphthalen-1-yl)phenyl)piperidin-4-yl)methyl)piperazin-1-yl)-acetamide] | D (a percentage degradation value of less than 10%) | D (a percentage degradation value of less than 10%) | D (a percentage degradation value of less than 10%)
7.80 | 8.34 | O=C1CCC(Nc2cccc(N3CCN(CC4CCN(c5ccc([C@@H]6c7ccc(O)cc7CC[C@@H]6c6ccccc6)cc5)CC4)CC3)c2)C(=O)N1 (stereo partly drawn) [Compound B13, 3-((3-(4-((1-(4-((1R,2S)-6-hydroxy-2-phenyl-1,2,3,4-tetrahydronaphthalen-1-yl)phenyl)piperidin-4-yl)methyl)piperazin-1-yl)phenyl)amino)piperidine-2,6-dione] | D (a percentage degradation value of less than 10%) | D (a percentage degradation value of less than 10%) | D (a percentage degradation value of less than 10%)
9.42 | 9.77 | Cc1c(-c2ccc(O)cc2)n(Cc2ccc(N3CCC(CN4CCN(c5ccc6c(c5)CN(C5CCC(=O)NC5=O)C6=O)CC4)CC3)cc2)c2ccc(O)cc12 (stereo not shown) [Compound E4, 3-(5-(4-((1-(4-((5-hydroxy-2-(4-hydroxyphenyl)-3-methyl-1H-indol-1-yl)-methyl)phenyl)piperidin-4-yl)methyl)piperazin-1-yl)-1-oxoisoindolin-2-yl)piperidine-2,6-dione] | B (a percentage degradation value of less than 50% and no less than 25%) | B (a percentage degradation value of less than 50% and no less than 25%) | C (a percentage degradation value of less than 25% and no less than 10%)
7.72 | 9.08 | Cc1c(-c2ccc(O)cc2)n(Cc2ccc(OCCCCN3CCN(C(=O)COc4cccc5c4CN(C4CCC(=O)NC4=O)C5=O)CC3)cc2)c2ccc(O)cc12 (stereo not shown) [Compound E1, 3-(4-(2-(4-(4-(4-((5-hydroxy-2-(4-hydroxyphenyl)-3-methyl-1H-indol-1-yl)-methyl)phenoxy)butyl)piperazin-1-yl)-2-oxoethoxy)-1-oxoisoindolin-2-yl)piperidine-2,6-dione] | C (a percentage degradation value of less than 25% and no less than 10%) | B (a percentage degradation value of less than 50% and no less than 25%) | B (a percentage degradation value of less than 50% and no less than 25%)
9.66 | 9.74 | O=C1CCC(c2ccc(OCC(=O)N3CCN(CCCCOc4ccc([C@@H]5c6ccc(O)cc6CC[C@@H]5c5ccccc5)cc4)CC3)cc2)C(=O)N1 (stereo partly drawn) [Compound B6, 3-(4-(2-(4-(4-(4-((1R,2S)-6-hydroxy-2-phenyl-1,2,3,4-tetrahydronaphthalen-1-yl)phenoxy)butyl)piperazin-1-yl)-2-oxoethoxy)phenyl)piperidine-2,6-dione] | C (a percentage degradation value of less than 25% and no less than 10%) | C (a percentage degradation value of less than 25% and no less than 10%) | C (a percentage degradation value of less than 25% and no less than 10%)
9.60 | 11.00 | Cn1nc(C2CCC(=O)NC2=O)c2ccc(OCC(=O)N3CCN(CCCCOc4ccc([C@@H]5c6ccc(O)cc6CC[C@@H]5c5ccccc5)cc4)CC3)cc21 (stereo partly drawn) [Compound B2, 3-(6-(2-(4-(4-(4-((1R,2S)-6-hydroxy-2-phenyl-1,2,3,4-tetrahydronaphthalen-1-yl)phenoxy)butyl)piperazin-1-yl)-2-oxoethoxy)-1-methyl-1H-indazol-3-yl)piperidine-2,6-dione] | B (a percentage degradation value of less than 50% and no less than 25%) | B (a percentage degradation value of less than 50% and no less than 25%) | C (a percentage degradation value of less than 25% and no less than 10%)
